Data: ChEMBL document CHEMBL1201862, “PubChem BioAssay data set” (2004)
One block for each molecule: values may come before it. Activity calls are given as the source filed them.

Tests used:
[1] = cytotoxicity in HEK-293T cells, dose response, cytotoxicity control for TCR NF-kB inhibitor project, luminescence, T-cell screen hits (AID 489026); type: functional, cell-based;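 further: cells exposed to compound about 14 hours before the viability readout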
[2] = target: T1, Heat shock factor protein 1 (Mus musculus, UniProt P38532); assay: inhibition of MG132-induced HSE-luciferase signal, confirmation, cell-based, NIH3T3, luminescence, dose retest (AID 2382); type: functional;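 further: NIH3T3 fibroblasts with HSF1-driven luciferase reporter stressed by proteasome inhibitor MG132; luminescence from HSF1-driven luciferase expression after 8 hours of MG132 stress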
T1 sequence (P38532 whole entry): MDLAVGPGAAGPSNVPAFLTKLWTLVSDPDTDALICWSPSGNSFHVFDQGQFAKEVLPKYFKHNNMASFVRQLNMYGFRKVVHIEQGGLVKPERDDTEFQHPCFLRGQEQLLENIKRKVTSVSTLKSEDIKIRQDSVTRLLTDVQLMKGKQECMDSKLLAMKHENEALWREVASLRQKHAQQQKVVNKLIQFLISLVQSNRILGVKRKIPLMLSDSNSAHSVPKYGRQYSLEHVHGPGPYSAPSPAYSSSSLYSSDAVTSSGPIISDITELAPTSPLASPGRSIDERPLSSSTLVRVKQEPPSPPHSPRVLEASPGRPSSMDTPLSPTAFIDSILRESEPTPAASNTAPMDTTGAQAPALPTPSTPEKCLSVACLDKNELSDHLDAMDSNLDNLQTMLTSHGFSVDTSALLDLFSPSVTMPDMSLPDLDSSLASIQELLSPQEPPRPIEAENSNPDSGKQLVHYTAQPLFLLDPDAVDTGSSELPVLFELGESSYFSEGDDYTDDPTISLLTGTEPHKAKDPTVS

[3] = tested on: HEK293; assay: cells; type: functional, cell-based; settings: Homo sapiens
[4] = tested on: HEK293; assay: NOD2 signaling inhibitors in MDP-stimulated cells, cell-based, uHTS, luminescence (AID 2001); type: functional; settings: Homo sapiens
[5] = target: Nucleotide-binding oligomerization domain-containing protein 2 (Homo sapiens, UniProt Q9HC29); assay: NOD2 signaling inhibitors, cell-based, luminescence, uHTS, HEK293 (AID 1566); type: functional
[6] = tested on: HEK293; assay: NOD1 signaling inhibitors, primary screen, cell-based, luminescence, uHTS (AID 1578); type: functional; settings: Homo sapiens
[7] = target: Tumor necrosis factor (Homo sapiens, UniProt P01375); assay: TNFa-triggered NF-kB activation inhibitors, SAR follow-up, cell-based, revised (AID 2337); type: functional
[8] = tested on: HEK293; assay: cells; type: functional, cell-based; settings: Homo sapiens; remark: listed apart in the source
[9] = target: T2, Nucleotide-binding oligomerization domain-containing protein 1 (Homo sapiens, UniProt Q9Y239); assay: NOD1 signaling inhibitors, SAR follow-up, revised (AID 2333); type: functional
T2 sequence (Q9Y239 whole entry): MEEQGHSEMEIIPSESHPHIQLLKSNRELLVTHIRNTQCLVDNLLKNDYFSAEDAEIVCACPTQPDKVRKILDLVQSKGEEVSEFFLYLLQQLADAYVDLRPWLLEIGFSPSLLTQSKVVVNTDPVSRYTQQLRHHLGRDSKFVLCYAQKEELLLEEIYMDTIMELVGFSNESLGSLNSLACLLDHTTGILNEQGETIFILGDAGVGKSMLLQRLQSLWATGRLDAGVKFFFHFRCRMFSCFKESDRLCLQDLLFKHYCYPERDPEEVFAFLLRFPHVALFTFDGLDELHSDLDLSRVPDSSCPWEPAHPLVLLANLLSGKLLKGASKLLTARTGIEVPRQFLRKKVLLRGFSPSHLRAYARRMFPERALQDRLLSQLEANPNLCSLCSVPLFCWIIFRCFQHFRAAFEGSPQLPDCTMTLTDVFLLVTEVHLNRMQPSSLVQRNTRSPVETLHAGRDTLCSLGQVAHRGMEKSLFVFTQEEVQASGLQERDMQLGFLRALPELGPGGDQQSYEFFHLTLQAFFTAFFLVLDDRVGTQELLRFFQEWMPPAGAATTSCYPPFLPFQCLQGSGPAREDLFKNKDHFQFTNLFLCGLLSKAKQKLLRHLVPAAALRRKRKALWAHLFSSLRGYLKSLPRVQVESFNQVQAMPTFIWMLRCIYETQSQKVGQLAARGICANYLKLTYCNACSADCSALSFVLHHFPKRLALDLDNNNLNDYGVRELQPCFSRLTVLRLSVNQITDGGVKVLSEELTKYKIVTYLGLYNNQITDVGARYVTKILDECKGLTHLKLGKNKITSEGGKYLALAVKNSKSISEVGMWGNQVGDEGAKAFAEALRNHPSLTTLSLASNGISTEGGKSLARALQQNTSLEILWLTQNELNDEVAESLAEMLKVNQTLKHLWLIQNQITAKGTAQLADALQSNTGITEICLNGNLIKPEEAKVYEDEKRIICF

[10] = tested on: HEK293; assay: cells; settings: Homo sapiens
[11] = tested on: HEK293; assay: cells; type: functional, cell-based; settings: Homo sapiens; remark: listed apart in the source
[12] = target: T3, High affinity choline transporter 1 (Homo sapiens, UniProt Q9GZV3); assay: CHT inhibitors, dose response, cell-based, 5-point CRC, membrane potential dye (AID 504840); type: functional
T3 sequence (Q9GZV3 whole entry): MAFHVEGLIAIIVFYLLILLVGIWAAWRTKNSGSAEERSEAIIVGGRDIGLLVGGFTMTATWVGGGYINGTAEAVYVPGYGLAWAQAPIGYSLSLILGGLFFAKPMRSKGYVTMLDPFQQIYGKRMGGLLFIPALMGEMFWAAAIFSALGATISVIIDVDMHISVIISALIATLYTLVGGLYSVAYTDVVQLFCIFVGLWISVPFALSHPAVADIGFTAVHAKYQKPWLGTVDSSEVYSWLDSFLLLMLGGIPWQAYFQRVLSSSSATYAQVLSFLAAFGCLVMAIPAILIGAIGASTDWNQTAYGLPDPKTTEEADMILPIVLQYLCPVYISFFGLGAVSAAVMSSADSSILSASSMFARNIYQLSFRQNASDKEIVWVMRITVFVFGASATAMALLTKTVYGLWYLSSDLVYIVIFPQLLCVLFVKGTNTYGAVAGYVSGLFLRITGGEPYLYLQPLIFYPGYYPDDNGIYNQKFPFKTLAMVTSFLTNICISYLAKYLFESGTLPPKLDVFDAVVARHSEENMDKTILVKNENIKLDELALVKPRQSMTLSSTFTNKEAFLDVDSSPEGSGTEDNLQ

[13] = tested on: Escherichia coli; assay: microbe, parasite or virus in culture
[14] = target: T4, Microphthalmia-associated transcription factor (Homo sapiens, UniProt O75030); assay: TRPM1 promoter luciferase signal decrease, dose response, MITF inhibitor project, cell-based, SK-MEL-5, cherry-picked, set 3 (AID 493073); type: functional
T4 sequence (O75030 whole entry): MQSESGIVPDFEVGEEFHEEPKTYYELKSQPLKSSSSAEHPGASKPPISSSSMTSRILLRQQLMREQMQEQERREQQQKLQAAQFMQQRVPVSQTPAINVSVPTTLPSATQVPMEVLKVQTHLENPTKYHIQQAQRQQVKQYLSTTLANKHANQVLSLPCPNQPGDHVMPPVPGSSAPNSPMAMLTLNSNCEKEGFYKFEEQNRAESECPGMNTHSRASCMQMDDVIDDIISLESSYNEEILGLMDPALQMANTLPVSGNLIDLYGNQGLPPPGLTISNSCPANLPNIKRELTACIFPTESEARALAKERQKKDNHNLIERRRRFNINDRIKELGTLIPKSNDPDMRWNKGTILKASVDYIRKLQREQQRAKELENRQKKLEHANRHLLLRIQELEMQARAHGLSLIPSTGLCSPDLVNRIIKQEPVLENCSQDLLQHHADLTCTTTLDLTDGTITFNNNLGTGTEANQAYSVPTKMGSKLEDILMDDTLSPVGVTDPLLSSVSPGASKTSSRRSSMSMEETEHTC

[15] = inhibitors of intracellular T. cruzi replication, confirmation, NIH3T3 host cells, beta-gal luminescence (AID 2044); type: functional, cell-based;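 further: intracellular parasites grown in NIH/3T3 mouse fibroblasts as host cells; luminescent beta-galactosidase reporter signal from transgenic T. cruzi replicating inside host cells; inhibitors lower the luminescence signal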
[16] = cytotoxicity toward NIH3T3 fibroblasts, dose response, counter-screen, cell-based, ATP luminescence, mouse fibroblasts (AID 2010); type: functional;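 further: cells exposed to compound for about 90 hours before reading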
[17] = target: T5, DNA repair protein RAD52 homolog (Homo sapiens, UniProt P43351); type: functional, biochemical
T5 sequence (P43351 whole entry): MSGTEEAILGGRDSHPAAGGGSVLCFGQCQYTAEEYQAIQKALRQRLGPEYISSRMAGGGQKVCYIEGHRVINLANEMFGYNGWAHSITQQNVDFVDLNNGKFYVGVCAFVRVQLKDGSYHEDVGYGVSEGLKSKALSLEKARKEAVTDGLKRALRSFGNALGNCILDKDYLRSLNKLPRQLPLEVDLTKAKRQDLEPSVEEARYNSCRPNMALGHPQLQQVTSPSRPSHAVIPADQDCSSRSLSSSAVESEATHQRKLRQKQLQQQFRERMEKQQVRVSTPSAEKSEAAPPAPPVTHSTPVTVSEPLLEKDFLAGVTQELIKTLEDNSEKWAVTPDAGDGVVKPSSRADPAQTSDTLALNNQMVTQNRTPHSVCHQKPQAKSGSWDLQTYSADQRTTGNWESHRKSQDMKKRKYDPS

[18] = tested on: INS1; assay: beta cell apoptosis inhibitors, cytokine rescue, dose response, luminescence, retest (AID 449756); type: functional, cell-based; settings: Rattus norvegicus;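 further: cell death triggered by IL-1 beta plus TNF-alpha plus IFN-gamma mixture; protective hits raise ATP signal compared with cytokine alone wells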
[19] = target: T6, Serine/threonine-protein phosphatase (Candida dubliniensis (strain CD36 / CBS 7987 / NCPF 3949 / NRRLY-17841) (Yeast), UniProt B9W6M3); assay: calcineurin pathway inhibitors in yeast reporter, dose response, S. cerevisiae, CDRE-lacZ, luminescence, secondary (AID 2388); type: functional, cell-based;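 further: yeast reporter cells carrying a calcineurin-responsive lacZ construct stimulated with calcium chloride; luminescent beta-galactosidase reporter signal in whole cells rather than isolated phosphatase activity; potency for inhibition where a drop in reporter signal means calcineurin blockade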
T6 sequence (B9W6M3 whole entry): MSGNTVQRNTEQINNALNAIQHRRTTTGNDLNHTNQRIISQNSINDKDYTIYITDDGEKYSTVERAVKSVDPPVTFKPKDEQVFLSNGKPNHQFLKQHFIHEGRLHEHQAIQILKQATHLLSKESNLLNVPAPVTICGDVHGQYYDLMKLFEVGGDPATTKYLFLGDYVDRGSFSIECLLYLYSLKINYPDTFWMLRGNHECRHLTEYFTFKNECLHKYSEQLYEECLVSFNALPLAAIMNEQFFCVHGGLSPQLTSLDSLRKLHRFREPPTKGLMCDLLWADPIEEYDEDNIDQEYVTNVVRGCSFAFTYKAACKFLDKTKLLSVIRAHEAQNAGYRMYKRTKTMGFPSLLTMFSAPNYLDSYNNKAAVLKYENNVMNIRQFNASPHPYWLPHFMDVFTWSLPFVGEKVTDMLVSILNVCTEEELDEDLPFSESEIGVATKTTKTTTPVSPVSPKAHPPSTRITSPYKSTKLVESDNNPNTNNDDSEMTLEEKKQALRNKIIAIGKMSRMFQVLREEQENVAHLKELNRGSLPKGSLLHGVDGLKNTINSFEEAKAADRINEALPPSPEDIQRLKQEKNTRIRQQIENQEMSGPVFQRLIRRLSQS

[20] = target: ATP-dependent molecular chaperone HSP82 (Candida albicans (strain WO-1) (Yeast), UniProt C4YTQ8); assay: loss of DOC-induced GRE-beta-galactosidase reporter signal, dose response, Hsp90 inhibitor project, S. cerevisiae, luminescence (AID 2400); type: functional, cell-based;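 further: beta-galactosidase luminescence from glucocorticoid response element reporter as proxy for Hsp90 function; inhibitor potency where signal loss means Hsp90 inhibition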
[21] = C. albicans growth with fluconazole, confirmation, fluorescence, retest (AID 2467); type: functional, cell-based
[22] = NIH-3T3 fibroblast cytotoxicity, dose response, cytotoxicity control, cell-based, fluorescence, Alamar Blue, secondary assay (AID 2327); type: functional;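 further: NIH-3T3 mouse fibroblasts cultured with fluconazole at 8 µg/mL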
[23] = target: T7, COUP transcription factor 2 (Homo sapiens, UniProt P24468); assay: Luminescence-based cell-based high throughput dose response assay to identify inhibitors of COUP-TFII (NR2F2).; type: functional;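 further: HEK293 cells transiently cotransfected with COUP-TFII expression vector and reporter; luciferase reporter luminescence driven by COUP-TFII from the pX2-168 reporter plasmid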
T7 sequence (P24468 whole entry): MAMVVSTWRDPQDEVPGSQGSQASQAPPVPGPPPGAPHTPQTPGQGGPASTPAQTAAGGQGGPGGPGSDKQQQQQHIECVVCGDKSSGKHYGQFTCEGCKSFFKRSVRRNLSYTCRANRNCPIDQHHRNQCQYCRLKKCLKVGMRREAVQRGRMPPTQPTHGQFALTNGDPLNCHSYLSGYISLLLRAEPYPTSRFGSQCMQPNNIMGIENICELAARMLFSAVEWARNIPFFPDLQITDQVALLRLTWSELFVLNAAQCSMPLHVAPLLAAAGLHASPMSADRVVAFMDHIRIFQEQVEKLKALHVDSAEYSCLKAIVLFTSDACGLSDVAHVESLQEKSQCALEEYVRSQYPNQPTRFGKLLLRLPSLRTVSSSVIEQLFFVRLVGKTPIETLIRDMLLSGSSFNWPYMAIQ

[24] = target: Dual specificity tyrosine-phosphorylation-regulated kinase 1A (Rattus norvegicus, UniProt Q63470); type: biochemical, Homo sapiens
[25] = target: Cytochrome P450 2C19 (Homo sapiens, UniProt P33261); assay: Cytochrome panel assay with activity outcomes. Panel member name: p450-cyp2c19 Compounds with AC50 equal or less than 10 uM are considered active; type: functional; settings: read-out: AC50
[26] = target: Cytochrome P450 2C9 (Homo sapiens, UniProt P11712)
Cytochrome P450 2C9, sequence (P11712 whole entry): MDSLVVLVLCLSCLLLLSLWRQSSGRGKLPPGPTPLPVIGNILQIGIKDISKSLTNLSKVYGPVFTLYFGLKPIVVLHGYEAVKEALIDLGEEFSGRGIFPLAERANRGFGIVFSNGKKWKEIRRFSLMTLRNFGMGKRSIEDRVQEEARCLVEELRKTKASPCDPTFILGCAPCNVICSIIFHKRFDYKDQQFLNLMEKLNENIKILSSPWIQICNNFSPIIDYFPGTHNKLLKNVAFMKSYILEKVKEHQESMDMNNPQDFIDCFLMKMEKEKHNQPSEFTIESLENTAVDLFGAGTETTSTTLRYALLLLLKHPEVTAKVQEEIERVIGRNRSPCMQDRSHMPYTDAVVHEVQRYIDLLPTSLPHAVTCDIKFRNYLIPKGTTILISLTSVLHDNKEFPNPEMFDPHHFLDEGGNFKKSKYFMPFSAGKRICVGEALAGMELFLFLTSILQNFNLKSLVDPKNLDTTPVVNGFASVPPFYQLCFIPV

Tumor necrosis factor, sequence (P01375 whole entry): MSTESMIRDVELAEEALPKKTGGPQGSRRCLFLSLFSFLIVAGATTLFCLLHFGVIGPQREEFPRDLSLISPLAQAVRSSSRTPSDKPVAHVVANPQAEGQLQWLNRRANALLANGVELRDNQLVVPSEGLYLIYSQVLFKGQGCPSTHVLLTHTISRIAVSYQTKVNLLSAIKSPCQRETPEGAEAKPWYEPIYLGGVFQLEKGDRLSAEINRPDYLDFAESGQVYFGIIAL
Nucleotide-binding oligomerization domain-containing protein 2, sequence (Q9HC29 whole entry, the tested form may be a part): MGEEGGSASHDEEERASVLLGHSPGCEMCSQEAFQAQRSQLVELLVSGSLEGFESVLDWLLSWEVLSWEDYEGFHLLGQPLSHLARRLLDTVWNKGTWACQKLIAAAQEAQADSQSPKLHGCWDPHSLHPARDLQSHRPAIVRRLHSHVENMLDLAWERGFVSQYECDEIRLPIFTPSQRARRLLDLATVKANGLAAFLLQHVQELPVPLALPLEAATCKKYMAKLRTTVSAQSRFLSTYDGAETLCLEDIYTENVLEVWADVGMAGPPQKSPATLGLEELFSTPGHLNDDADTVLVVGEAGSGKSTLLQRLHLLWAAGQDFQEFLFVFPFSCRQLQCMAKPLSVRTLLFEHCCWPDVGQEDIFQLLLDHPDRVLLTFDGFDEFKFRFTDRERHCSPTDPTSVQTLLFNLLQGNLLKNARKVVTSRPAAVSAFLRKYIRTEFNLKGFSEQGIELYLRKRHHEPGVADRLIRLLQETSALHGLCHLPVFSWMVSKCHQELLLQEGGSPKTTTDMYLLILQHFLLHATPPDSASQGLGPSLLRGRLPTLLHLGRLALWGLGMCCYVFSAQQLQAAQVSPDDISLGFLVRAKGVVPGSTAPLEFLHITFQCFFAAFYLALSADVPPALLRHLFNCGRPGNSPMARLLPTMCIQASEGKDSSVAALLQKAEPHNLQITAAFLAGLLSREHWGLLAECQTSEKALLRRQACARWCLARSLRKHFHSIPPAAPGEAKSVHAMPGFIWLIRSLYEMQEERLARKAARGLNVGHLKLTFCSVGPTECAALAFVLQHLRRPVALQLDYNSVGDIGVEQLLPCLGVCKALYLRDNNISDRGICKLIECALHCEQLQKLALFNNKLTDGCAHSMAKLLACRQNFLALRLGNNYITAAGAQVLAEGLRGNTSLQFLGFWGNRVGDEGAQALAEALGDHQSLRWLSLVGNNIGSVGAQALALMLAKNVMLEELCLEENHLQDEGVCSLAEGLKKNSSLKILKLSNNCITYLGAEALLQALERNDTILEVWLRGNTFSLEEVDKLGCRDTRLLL
ATP-dependent molecular chaperone HSP82, sequence (C4YTQ8 whole entry): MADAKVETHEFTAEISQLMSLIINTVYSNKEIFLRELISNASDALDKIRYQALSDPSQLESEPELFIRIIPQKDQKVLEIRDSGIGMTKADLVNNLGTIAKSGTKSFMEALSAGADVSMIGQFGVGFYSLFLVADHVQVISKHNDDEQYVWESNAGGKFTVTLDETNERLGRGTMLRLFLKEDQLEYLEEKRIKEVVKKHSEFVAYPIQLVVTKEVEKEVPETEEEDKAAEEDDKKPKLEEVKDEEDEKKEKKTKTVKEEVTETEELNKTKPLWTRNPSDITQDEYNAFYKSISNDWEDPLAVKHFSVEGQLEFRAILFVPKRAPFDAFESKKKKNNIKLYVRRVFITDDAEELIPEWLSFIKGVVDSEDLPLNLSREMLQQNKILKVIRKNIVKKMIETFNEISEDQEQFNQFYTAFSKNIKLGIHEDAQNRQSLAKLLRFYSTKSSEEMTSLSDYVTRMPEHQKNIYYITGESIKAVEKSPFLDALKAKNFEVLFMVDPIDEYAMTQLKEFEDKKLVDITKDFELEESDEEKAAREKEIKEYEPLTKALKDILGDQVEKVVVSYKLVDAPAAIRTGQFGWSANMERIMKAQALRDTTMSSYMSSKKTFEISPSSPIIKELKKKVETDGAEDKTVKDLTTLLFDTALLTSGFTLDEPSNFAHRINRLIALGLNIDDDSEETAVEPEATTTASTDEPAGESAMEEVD
Cytochrome P450 2C19, sequence (P33261 whole entry): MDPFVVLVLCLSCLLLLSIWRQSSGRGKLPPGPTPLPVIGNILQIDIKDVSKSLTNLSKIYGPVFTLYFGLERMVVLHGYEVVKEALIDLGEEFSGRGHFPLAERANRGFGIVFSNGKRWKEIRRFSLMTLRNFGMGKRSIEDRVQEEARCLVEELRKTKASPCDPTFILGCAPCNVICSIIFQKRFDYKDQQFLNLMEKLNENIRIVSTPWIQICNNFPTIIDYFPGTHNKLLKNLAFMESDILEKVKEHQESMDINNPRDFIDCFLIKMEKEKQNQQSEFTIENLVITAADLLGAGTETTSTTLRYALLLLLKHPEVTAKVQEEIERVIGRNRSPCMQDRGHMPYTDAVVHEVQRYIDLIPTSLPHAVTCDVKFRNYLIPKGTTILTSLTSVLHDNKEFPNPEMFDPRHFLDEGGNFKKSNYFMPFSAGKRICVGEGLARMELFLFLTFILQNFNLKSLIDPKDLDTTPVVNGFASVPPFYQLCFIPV

Compound: Cc1ccc2oc(N=C(N)NC(=O)C(C)(C)C)nc2c1
IC50 [1]: > 80 µM (inactive) | EC50 [2]: < 0.16 µM (active) | IC50 [3]: < 0.312 µM (active) | IC50 [4]: 4.71 µM (active) | EC50 [5]: 0.01 µM (active) | EC50 [6]: < 0.31 µM (inactive) | IC50 [7]: < 0.0391 µM (active) | IC50 [8]: > 20 µM (inactive) | IC50 [9]: 0.0949 µM (active) | IC50 [10]: > 20 µM (inactive) | IC50 [11]: > 20 µM (inactive)

IC50 [12]: 15.1 µM (active)
Compound: CCCn1c2ccccc2c2cnn(CC(=O)NCCCN3CCCC(C)C3)c(=O)c21 (stereo unspecified)

Compound: Cc1ccc2c(CC(=O)Nc3ccc(N4CCN(C)CC4)cc3C)coc2c1
AC50 [13]: 43.5 µM (active)

Compound: Cc1cc(C)c2nc3nc(C)cc(C)c3c(N)c2c1
AC50 [14]: 5.72 µM (active) | EC50 [15]: 1.5 µM (active) | EC50 [16]: > 60 µM (not active) | AC50 [17]: 1.12 µM (active)

Compound: CCc1cc(C(=O)NC2CCCc3c2cnn3-c2cccc(C)c2C)n(C)n1 (stereo unspecified)
IC50 [1]: > 80 µM (inactive) | AC50 [18]: < 0.195 µM (active) | EC50 [19]: > 180 µM (inactive) | EC50 [20]: > 150 µM (inactive) | EC50 [21]: 0.142 µM (active) | EC50 [22]: > 150 µM (inactive) | IC50 [23]: > 0.117 µM (active) | IC50 [7]: 0.179 µM (active) | IC50 [9]: 0.0983 µM (active) | IC50 [10]: > 20 µM (inactive)

Compound: COc1ccc(C(=O)Nc2cnn(Cc3ccc(Cl)cc3)c2)cc1OC
AC50 [13]: 96.5 µM (active)

AC50 [24]: 1.21 µM (active) | AC50 [25]: 25.1 µM (inconclusive) | AC50 [26]: inconclusive
Compound: NC1=NC(=O)/C(=C/c2cccs2)S1
